# In US4372948A, “Derivative of saccharide and physiologically active agent containing the same” (Kureha Kagaku Kogyo Kabushiki Kaisha, priority 1980, dated 1983):
# What was measured:
# level of blood sugar = experiment: Anti-hyperglycemia activity (reduction of blood sugar level); assay type: in vivo, rat (Wistar, streptozotocin); conditions: oral, 300 mg/kg
# Description: A group of Wistar rats to which at first streptozotocin was interperitoneally administered at a rate of 60 mg/kg and of which the positivity of glycosuria was confirmed after a week of the administration and to which regular insulin was further administered and of which the reduction of levels of glucose in urine and blood was once confirmed, however, of which hyperglycemia and hyperglycosuria were again confirmed after a few days was chosen and used as model animals of glycosuria in the following test. After orally administering each of the present compounds to the model animals at a dose of 300 mg/kg body weight, as a solution or dispersion in distilled water, the blood was collected two times, respectively after 3 and 6 hours of the administration.
# blood pressure = experiment: Anti-hypertension activity (reduction of blood pressure); assay type: in vivo, rat (spontaneous hypertension); conditions: oral, 300 mg/kg
# Description: Rats of spontaneous hypertension were orally administered with each of the present compounds as a solution or dispersion in distilled water at a dose rate of 300 mg/kg body weight. After 3 and 6 hours of the administration, the blood pressure of each rat was determined, and the difference between the above-determined value and the value just before the administeration was used as the index of the activity of reducing the blood pressure of the compound.
# carrageenin edema = experiment: Anti-Carrageenin edema activity; assay type: in vivo, rat; conditions: Rattus norvegicus, po, 1000 mg/kg once, read-out: I.R. against carrageenin edema
# Description: After orally administering each of the present compounds forcibly to each group of rats, composed of 10 animals, as a solution or dispersion in distilled water at a dose of 1000 mg/kg once, 0.1 ml of an aqueous dispersion of 1% carrageenin in aqueous physiological saline solution was injected into the foot pad of the right hind leg of the administered animal following Van Arman et al. (1963). Thereafter, the thickness of the foot pad was measured at a time interval to find the rate of inhibiting of the swelling of the foot pad according to the following formula:
# (§1) Rate of inhibition (I.R.) (%)=(1-T/C)×100
# T means the average volume of the foot pad of the animals administered with one of the present compounds and carrageenin, and
# C means that of the animal not administered with the present compound, however, administered with carrageenin.
# Sarcoma-180 = experiment: Anti-tumour activity against Sarcoma-180; assay type: in vivo, mouse (ICR-JCL); conditions: Mus musculus, Sarcoma-180, po, 600 h, 10 times every other day, tumour weight on 25th day, read-out: Antitumour activity, inhibiting rate (I.R.)
# Description: Sarcoma-180 was transplanted into the axillary part of ICR-JCL mice at a rate of 1×10^6 cells/animal, and after 24 hours of transplantation, each of the present compounds as a solution or dispersion in sterilized physiological saline solution was orally administered to each of the transplanted mice 10 times every other day at a dose of 500 mg/kg/time. On 25th day of the transplantation, tumour node(s) were extirpated from all the mice to determine the weight of the tumour nodes.
# Antitumour activity (activity of inhibiting the proliferation of the transplanted sarcoma) of each of the present compounds was derived by the following formula and shown in Table 6:
# Antitumour activity (Inhibiting rate, I.R.)=(1-T/C)×100(%).
# T represents the total weight of tumour nodes of the group of mice transplanted and administered with the present compound, and
# C represents the total weight of tumour nodes of the group of mice transplanted, however, not administered with any agents.
# exudation = experiment: Anti-exudation activity (air pouch, croton oil); assay type: in vivo, rat; conditions: 5 days; for inhibition in vivo at 1000 mg/kg/day: Rattus norvegicus, po, 144 h, read-out: I.R. against exudation
# Description: Following the method of Baris et al. (1965), air was injected subcutaneously into the back of groups of rats, each group consisting of 6 animals to make an air pouch, and 0.5 ml of sesame oil containing 1% by weight of croton oil was injected into the air pouch. Each of the present compounds was orally administered forcibly to each of the groups of rats as a solution or dispersion in distilled water at a dose rate of 1000 mg/kg/day for continued five days. The amount of liquid exudated into the air pouch was measured on 6th day of the operation. The rate of inhibiting the exudation of the liquid was obtained by the same manner as in (5-2) and the results are shown also in Table 8.
# acetic acid writhing = experiment: Analgetic activity against chemical stimulation of acetic acid (writhing); assay type: in vivo, mouse (ICR female); conditions: Mus musculus, po, 30 min before 0.6% acetic acid, read-out: I.R. of writhing
# Text: as §1
# T represents the average number of writhing of the group of mice administered with the present compound and injected with acetic acid, and C represents the average number of writhing of the group of mice only injected with acetic acid (control).
# cotton pellet granuloma = experiment: Anti-granuloma activity (cotton pellet); assay type: in vivo, rat; conditions: Rattus norvegicus, po, 192 h, 7 days, read-out: I.R. against cotton pellet edema
# Description: Following the method of Winter et al. (1963), each two cotton wool pellets, each weighing 30±1 mg, were implanted into the back of each rats of groups of rats, each group consisting of 6 animals, at the positions of mutually symmetrical concerning the median line of the rat. To these groups of the thus operated rats, the present compounds were respectively administered orally and forcibly as a solution or dispersion in distilled water for 7 continuous days, once a day at a dose of 1000 mg/kg/day. On 8th day of the implantation, the granuloma was extirpated and the dry weight of the granuloma was measured, the rate of inhibiting the proliferation of granuloma being obtained as in (5-1) being shown in Table 8.
# beta-lipoprotein = experiment: Anti-hyperlipemia activity, beta-lipoprotein in blood; assay type: in vivo, rabbit (Japanese white male); conditions: oral, 300 mg/kg once
# Description: (§2) Japanese white male rabbits were fed for 3 months with a solid diet containing 1% of cholesterol taken ad lib, and after confirming the raised lipid content of the serum of the rabbits, they were utilized as model animals suffering from experimental arteriosclerosis. Each of the present compounds was administered orally as a solution or dispersion in distilled water to the experimental animals of each group at a dose rate of 300 mg/kg once, and blood samples were taken at a predetermined time interval from the auricular vein of each animal. The content of cholesterol in the blood specimen was traced as the time passed by, with an enzymatic method, and the content of beta-lipoprotein in the same blood specimen was traced with a colorimetry. Each value in Table 7 is the difference between the level just before administration and the level after 3 or 6 hours of the administration.
# [1] = test system: pseudo-escaping reaction to tail pressure; experiment: Analgetic activity against mechanical stimulation of pressure; assay type: in vivo, mouse (ICR female); conditions: oral, 1000 mg/kg
# total cholesterol = experiment: Anti-hyperlipemia activity, total cholesterol in blood; assay type: in vivo, rabbit (Japanese white male); conditions: oral, 300 mg/kg once; for Reduction of cholesterol level after 3 hrs.: negative = raising
# Description: as §2
# [2] = test system: pyrexia (Saccharomyces cerevisiae); experiment: Anti-pyrexia activity (yeast-induced); assay type: in vivo; conditions: Rattus norvegicus, oral, read-out: Rate of inhibiting pyrexia (I.R.)
# Description: Following the method of Winter et al. (1961), an aqueous dispersion of 20% by weight of Saccharomyces cerevisiae was subcutaneously injected into groups of rats, each group consisting of 6 animals, and after 10-hour fasting, 1000 mg/kg of each of the present compounds was orally administered to the rat as a solution of dispersion in distilled water, and then the rectal temperature of the rat was measured at a predetermined interval of time to find the lowest temperature.
# The anti-pyrexia activity of each compound was obtained from the following formula: […]
# Anti-pyrexia activity represented by the rate of inhibition (I.R.)
# C2 represents the average rectal temperature of negative control (non-treatment), not injected with the yeast and not administered with the present compound,
# C1 represents the average temperature of positive control, injected with the yeast and not administered with the compound and T represents the temperature of tested animals, injected with the yeast and administered with the present compound.
# in vivo = conditions: mouse, in vivo, po, mice, 7 days observation, read-out: LD50, acute oral toxicity
Compound,Reduced level of blood sugar after 3 hrs. (level of blood sugar) [mg/dL],Reduced level of blood sugar after 6 hrs. (level of blood sugar) [mg/dL],Reduced level of blood pressure after 3 hrs. (blood pressure) [mm Hg],Reduced level of blood pressure after 6 hrs. (blood pressure) [mm Hg],inhibition in vivo at 1000 mg/kg (carrageenin edema) [%],inhibition in vivo at 500 mg/kg (Sarcoma-180) [%],inhibition in vivo at 1000 mg/kg/day (exudation) [%],inhibition in vivo at 1000 mg/kg (acetic acid writhing) [%],inhibition in vivo at 1000 mg/kg/day (cotton pellet granuloma) [%],Reduction of beta-lipoprotein level after 3 hrs. (beta-lipoprotein) [mg/dL],Reduction of beta-lipoprotein level after 6 hrs. (beta-lipoprotein) [mg/dL],Pseudo-escapting reaction pressure [1] [mmHg],Pseudo-escapting reaction time [1] [s],Reduction of cholesterol level after 3 hrs. (total cholesterol) [mg/dL],Reduction of cholesterol level after 6 hrs. (total cholesterol) [mg/dL],inhibition in vivo at 1000 mg/kg [2] [%],LD50 at 168 h (in vivo) [mg/kg],also measured
"NC(=O)c1ccccc1NC1(CO)OC[C@@H](O)[C@@H](O)[C@@H]1O (stereo partly drawn) [Compound 1, o-Aminobenzoic acid amide-N-D-fructoside]",68,92,16,19,15.6,42,17.5,17,6.6,120,131,78,38,-2,36,41,11800,–
"NC(=O)c1cccc(NC2O[C@H](CO)[C@@H](O[C@@H]3O[C@H](CO)[C@@H](O)[C@H](O)[C@H]3O)[C@H](O)[C@H]2O)c1 (stereo partly drawn) [Compound 2, m-aminobenzoic acid amide-N-cellobioside]",85,103,20,22,20.3,35,6.6,20,6.1,108,124,84,42,1,30,36,> 15000,–
"NC(=O)c1ccc(NC2OC[C@@H](O)[C@H](O)[C@H]2O)cc1 (stereo partly drawn) [Compound 3, p-aminobenzoic acid amide-N-D-xyloside]",101,115,20,24,26.5,47,19.1,22,7,115,119,93,44,3,45,20,> 15000,–
"NC(=O)c1ccc(NC2O[C@H](CO)[C@@H](O)[C@H](O)[C@@H]2O)cc1 (stereo partly drawn) [Compound 4, p-aminobenzoic acid amide-N-D-mannoside]",110,116,14,20,12.1,42,5.7,41,14.9,123,135,96,45,0,46,28,13600,–
"C[C@@H]1OC(Nc2ccc(CC(=O)O)cc2)[C@H](O)[C@H](O)[C@H]1O (stereo partly drawn) [Compound 27, p-aminophenylacetic acid-N-L-rhamnoside]",91,90,20,20,5.2,43,–,35,23.1,–,–,91,40,–,–,–,13800,"I.R. against exudation (exudation; oral, 1000 mg/kg/day): 16.5%; Reduction of beta-lipoprotein level after 3 hrs. (beta-lipoprotein; 300 mg/kg): 125 mg/dL; Reduction of beta-lipoprotein level after 6 hrs. (beta-lipoprotein; 300 mg/kg): 130 mg/dL; Reduction of cholesterol level after 3 hrs. (total cholesterol; 300 mg/kg): 1 mg/dL; Reduction of cholesterol level after 6 hrs. (total cholesterol; 300 mg/kg): 30 mg/dL"
